Patent USRE37781E1, “Substituted cyclic carbonyls and derivatives thereof useful as retroviral protease inhibitors” (DuPont Pharmaceuticals Company, priority 1991, dated 2002)
pKi: −log10 of the molar value. Values after ≈ are worked out from the molar mass of the structure shown. Read-outs that look alike come from different tables or passages of the source.

Assays:
[1] = system: HIV-1 (RF) in MT-2 cells; assay: microbe, parasite or virus in culture; format: cell-based
Procedure, shortened: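 HIV-1 laboratory strains (RF, MN, IIIB) grown in H9 cells in RPMI 1640 with 5% FCS; infections in MT-2 cells. Viral RNA quantified by hybridization with biotinylated gag/pol capture probes on streptavidin plates and alkaline phosphatase-conjugated reporter probes; BH10 gag-pol in vitro transcripts serve as RNA standards.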

[2] = target: single-chain tethered dimer of HIV protease (Human immunodeficiency virus 1, UniProt P04585); assay: biochemical; format: biochemical; parameters: fused on or other part: A second copy of the same protease unit is joined to the first by a short peptide tether, giving one polypeptide
[3] = Human immunodeficiency virus 1, MT2, 48 h, Table 2d, HIV RNA assay, read-out: IC90
[4] = read-out: HPLC K1, Table 2d, HIV protease inhibition, HPLC method
[5] = Table 2d, HIV protease inhibition, HPLC method, read-out: HPLC K1
[6] = Human immunodeficiency virus 1, MT2, 48 h, Table 2d, class symbols, read-out: IC90
[7] = read-out: HPLC K1, Table 2d, class symbols

In the case of `O=C1N(Cc2ccc3c(c2)CCNC3)C(Cc2ccccc2)C(O)C(O)C(Cc2ccccc2)N1Cc1ccc2c(c1)CCNC2` (stereo not drawn) [Example 13T], the IC90 ([1]; Table 2d, class symbols) was “+ (+=>100 μg/mL)” and the pKi ([2]; Table 2d, class symbols, read-out: HPLC K1) was 6.00 to 8.00.
`O=C(c1cccc(CN2C(=O)N(Cc3cccc(C(=O)c4ncc[nH]4)c3)C(Cc3ccccc3)C(O)C(O)C2Cc2ccccc2)c1)c1ncc[nH]1` (stereo not drawn) [Example 15XJ] gave an IC90 [1, 3] of under 10 µg/mL and a pKi [2, 4] of over 8.00.
With `O=C(NCCN1CCOCC1)c1cccc(CN2C(=O)N(Cc3cccc(C(=O)NCCN4CCOCC4)c3)C(Cc3ccccc3)C(O)C(O)C2Cc2ccccc2)c1` (stereo not drawn) [15XU] the IC90 ([1]; Table 2d, HIV RNA assay) was “+++ (+++=<10 μg/mL)” and the pKi [2, 5] was over 8.00.
For `NC(=O)Cc1cccc(CN2C(=O)N(Cc3cccc(CC(N)=O)c3)C(Cc3ccccc3)C(O)C(O)C2Cc2ccccc2)c1` (stereo not drawn) [15DV], the IC90 [1, 3] was under 10 µg/mL and the pKi [2, 4] was over 8.00.
In the case of `N#Cc1cccc(CN2C(=O)N(Cc3cccc(C#N)c3)C(Cc3ccc(F)cc3)C(O)C(O)C2Cc2ccc(F)cc2)c1` (stereo not drawn) [20O], the IC90 ([1]; Table 2i) was “+++ (+++=<10 μg/mL)” and the pKi ([2]; Table 2i, read-out: HPLC Ki) was 6.00 to 8.00.
For `C[Si](C)(C)CCOCn1ccnc1-c1cccc(CN2C(=O)N(Cc3cccc(-c4ncc[nH]4)c3)C(Cc3ccccc3)C(O)C(O)C2Cc2ccccc2)c1` (stereo not drawn) [Example 15YK], the IC90 [1, 3] was under 10 µg/mL and the pKi [2, 4] was 6.00 to 8.00.
`CNc1cccc(CN2[C@H](Cc3ccccc3)[C@H](O)[C@@H](O)[C@@H](Cc3ccccc3)N(Cc3cccc(NC)c3)P2(=O)Oc2ccccc2)c1` (stereo partly drawn) [28L] was tested, and the IC90 ([1]; Table 2r) was “++ (++=10 to 100 μg/mL)” and the pKi ([2]; Table 2r, read-out: Ki HPLC) was 6.00 to 8.00.
`CN(C)S(=O)(=O)n1ccnc1-c1cccc(CN2C(=O)N(Cc3cccc(-c4nccn4S(=O)(=O)N(C)C)c3)C(Cc3ccccc3)C(O)C(O)C2Cc2ccccc2)c1` (stereo not drawn) [Example 15BM] showed an IC90 [1, 3] of under 10 µg/mL and a pKi [2, 4] of 6.00 to 8.00.
Compound `O=Cc1cc(CN2C(=O)N(Cc3ccc(O)cc3)C(Cc3ccccc3)C(O)C(O)C2Cc2ccccc2)ccc1O` (stereo not drawn) [Example 11E] has an IC90 [1, 6] of under 10 µg/mL and a pKi [2, 7] of over 8.00.
`CS(=O)(=O)NCCCCCN1C(=O)N(CCCCCNS(C)(=O)=O)C(Cc2ccccc2)C(O)C(O)C1Cc1ccccc1` (stereo not drawn) [15EN] was tested, and the IC90 ([1]; Table 2d, HIV RNA assay) was “++/+ (The ++/+ is used in the cases where an IC90 was determined to be >50 μg/mL)” and the pKi [2, 5] was 6.00 to 8.00.
Compound `N#Cc1cccc(CN2C(=O)N(Cc3cccnc3)C(Cc3ccccc3)C(O)C(O)C2Cc2ccccc2)c1` (stereo not drawn) [Example 15AR] has an IC90 [1, 3] of under 10 µg/mL and a pKi [2, 4] of over 8.00.
For `COCCCCCN1C(=O)N(CCCCCOC)C(Cc2ccccc2)C(O)C(O)C1Cc1ccccc1` (stereo not drawn) [Example 15VV], the IC90 [1, 6] was 10 to 100 µg/mL (≈ 19 to 190 µM) and the pKi [2, 7] was 6.00 to 8.00.
In the case of `CC(=NO)c1cccc(CN2C(Cc3ccccc3)C(O)C(O)C(Cc3ccccc3)N(Cc3cccc(C(C)=NO)c3)S2(=O)=O)c1` (stereo not drawn) [23U], the IC90 ([1]; Table 2m) was “+++ (+++=<10 μg/mL)” and the pKi ([2]; Table 2m, read-out: HPLC Ki) was over 8.00.
Work on `O=C1NC(Cc2ccccc2)C(O)C(O)C(Cc2ccccc2)N1CCCCCCCO` (stereo not drawn) [Example 12o] yielded an IC90 [1, 6] of 10 to 100 µg/mL (≈ 22.7 to 227 µM) and a pKi [2, 7] of 6.00 to 8.00.
With `O=C(NCCCCCN1C(=O)N(CCCCCNC(=O)c2cc(F)cc(F)c2)C(Cc2ccccc2)C(O)C(O)C1Cc1ccccc1)c1cc(F)cc(F)c1` (stereo not drawn) [15FG] the IC90 ([1]; HIV RNA assay, HIV-1 infected MT-2 cells, Table 2d) was “++/+ (The ++/+ is used in the cases where an IC90 was determined to be >50 μg/mL)” and the pKi ([2]; HIV protease inhibition, HPLC method, Table 2d, read-out: HPLC K1) was 6.00 to 8.00.
Work on `CC(=O)Oc1cccc(CN2C(=O)N(Cc3cccc(OC(C)=O)c3)C(Cc3ccccc3)C(O)C(O)C2Cc2ccccc2)c1` (stereo not drawn) [10F] yielded an IC90 [1, 6] of under 10 µg/mL and a pKi [2, 7] of 6.00 to 8.00.
For `Nc1cccc(CN2C(Cc3ccccc3)C(O)C(O)C(Cc3ccccc3)N(Cc3cccc(N)c3)S2(=O)=O)c1` (stereo not drawn) [23M], the IC90 ([1]; Table 2m) was “+++ (+++=<10 μg/mL)” and the pKi ([2]; Table 2m, read-out: HPLC Ki) was over 8.00.
For `CCCN1C(Cc2ccccc2)C(O)C(O)C(Cc2ccccc2)N(CCC)S1(=O)=O` (stereo not drawn) [23X], the IC90 ([1]; Table 2m) was “+++ (+++=<10 μg/mL)” and the pKi ([2]; Table 2m, read-out: HPLC Ki) was over 8.00.
With `CNC(=O)NCCCCCN1C(=O)N(CCCCCNC(=O)NC)C(Cc2ccccc2)C(O)C(O)C1Cc1ccccc1` (stereo not drawn) [15ES] the IC90 ([1]; Table 2d, HIV RNA assay) was “++/+ (The ++/+ is used in the cases where an IC90 was determined to be >50 μg/mL)” and the pKi [2, 5] was 6.00 to 8.00.
With `CN(C)P1(=O)N(CC2CC2)[C@H](Cc2ccccc2)[C@H](O)[C@@H](O)[C@@H](Cc2ccccc2)N1CC1CC1` (stereo partly drawn) [28G] the IC90 ([1]; Table 2r) was “++ (++=10 to 100 μg/mL)” and the pKi ([2]; Table 2r, read-out: Ki HPLC) was under 6.00.
With `O=C1N(Cc2cccc(O)c2)C(CCc2ccccc2)[C@@H](O)[C@@H](Cc2ccccc2)N1Cc1cccc(O)c1` (stereo partly drawn) [Example 8I] the IC90 ([1]; Human immunodeficiency virus 1, MT2, Table 1e, read-out: IC90) was under 10 µg/mL and the pKi ([2]; read-out: Ki (HPLC), Table 1e, cells marked (HPLC)) was over 8.00.
In the case of `O=C1N(Cc2cccc(O)c2)C(Cc2ccccc2)C(O)C(O)C(Cc2ccccc2)N1Cc1ccc2[nH]nnc2c1` (stereo not drawn) [15DR], the IC90 ([1]; Table 2d, HIV RNA assay) was “+++ (+++=<10 μg/mL)” and the pKi [2, 5] was over 8.00.
`CC(=O)c1cccc(CN2C(=O)N(Cc3cccc(C(=O)CCN(C)C)c3)C(Cc3ccccc3)C(O)C(O)C2Cc2ccccc2)c1` (stereo not drawn) [15AD] was tested, and the IC90 ([1]; Table 2d, HIV RNA assay) was “+++ (+++=<10 μg/mL)” and the pKi [2, 5] was over 8.00.
`O=C1N(CCCCCCO)C(Cc2ccccc2)C(O)C(O)C(Cc2ccccc2)N1CC1CC1` (stereo not drawn) [Example 12E] was tested, and the IC90 [1, 6] was under 10 µg/mL and the pKi [2, 7] was over 8.00.
